Assays:
[1] = test system: Nucleic Acid; test: Duplex stability of RNA counter strand assessed as melting temperature; assay type: nucleic-acid assay
[2] = test system: Nucleic Acid; test: Duplex stability of DNA counter strand assessed as melting temperature; assay type: nucleic-acid assay
[3] = Antisense effect in human 607B cells assessed as down-regulation of bcl2 expression at 100 nM after 48 hrs by Western blot analysis relative to control; assay type: functional

Tm [1] [°C]	Tm [2] [°C]	SMILES	Activity [3] [%]
53.1	71.4	Cc1cn([C@H]2C[C@H](OP(O)(=S)OC[C@H]3O[C@@H](n4cnc5c(N)ncnc54)[C@H](O)[C@@H]3OP(O)(=S)OC[C@H]3O[C@@H](n4ccc(N)nc4=O)[C@H](O)[C@@H]3OP(O)(=S)OC[C@H]3O[C@@H](n4ccc(N)nc4=O)[C@H](O)[C@@H]3OP(O)(=S)OC[C@H]3O[C@@H](n4cnc5c(=O)[nH]c(N)nc54)[C@H](O)[C@@H]3OP(O)(=S)OC[C@H]3O[C@@H](n4ccc(N)nc4=O)[C@H](O)[C@@H]3OP(O)(=S)OC[C@H]3O[C@@H](n4cnc5c(=O)[nH]c(N)nc54)[C@H](O)[C@@H]3OP(O)(=S)OC[C@H]3O[C@@H](n4cc(C)c(=O)[nH]c4=O)C[C@@H]3OP(O)(=S)OC[C@H]3O[C@@H](n4cnc5c(=O)[nH]c(N)nc54)[C@H](O)[C@@H]3OP(O)(=S)OC[C@H]3O[C@@H](n4ccc(N)nc4=O)[C@H](O)[C@@H]3OP(O)(=S)OC[C@H]3O[C@@H](n4cnc5c(=O)[nH]c(N)nc54)[C@H](O)[C@@H]3OP(O)(=S)OC[C@H]3O[C@@H](n4cnc5c(N)ncnc54)[C@H](O)[C@@H]3OP(O)(=S)OC[C@H]3O[C@@H](n4ccc(N)nc4=O)[C@H](O)[C@@H]3OP(O)(=S)OC[C@H]3O[C@@H](n4ccc(N)nc4=O)[C@H](O)[C@@H]3OP(O)(=S)OC[C@H]3O[C@@H](n4ccc(N)nc4=O)[C@H](O)[C@@H]3OP(O)(=S)OC[C@H]3O[C@@H](n4cc(C)c(=O)[nH]c4=O)C[C@@H]3OP(O)(=S)OC[C@H]3O[C@@H](n4ccc(N)nc4=O)[C@H](O)[C@@H]3OP(O)(=S)OC[C@H]3O[C@@H](n4cc(C)c(=O)[nH]c4=O)C[C@@H]3O)[C@@H](CO)O2)c(=O)[nH]c1=O (stereo partly specified)	25
53.5	68.5	Cc1cn([C@H]2C[C@H](OP(O)(=S)OC[C@H]3O[C@@H](n4ccc(N)nc4=O)[C@H](O)[C@@H]3OP(O)(=S)OC[C@H]3O[C@@H](n4cc(C)c(=O)[nH]c4=O)C[C@@H]3O)[C@@H](COP(O)(=S)O[C@H]3[C@@H](O)[C@H](n4ccc(N)nc4=O)O[C@@H]3COP(O)(=S)O[C@H]3[C@@H](O)[C@H](n4ccc(N)nc4=O)O[C@@H]3COP(O)(=S)O[C@H]3[C@@H](O)[C@H](n4ccc(N)nc4=O)O[C@@H]3COP(O)(=S)O[C@H]3[C@@H](O)[C@H](n4cnc5c(N)ncnc54)O[C@@H]3COP(O)(=S)O[C@H]3[C@@H](O)[C@H](n4cnc5c(=O)[nH]c(N)nc54)O[C@@H]3COP(O)(=S)O[C@H]3[C@@H](O)[C@H](n4ccc(N)nc4=O)O[C@@H]3COP(O)(=S)O[C@H]3[C@@H](O)[C@H](n4cnc5c(=O)[nH]c(N)nc54)O[C@@H]3COP(O)(=S)O[C@H]3C[C@H](n4cc(C)c(=O)[nH]c4=O)O[C@@H]3COP(O)(=S)O[C@H]3[C@@H](O)[C@H](n4cnc5c(=O)[nH]c(N)nc54)O[C@@H]3COP(O)(=S)O[C@H]3[C@@H](O)[C@H](n4ccc(N)nc4=O)O[C@@H]3COP(O)(=S)O[C@H]3[C@@H](O)[C@H](n4cnc5c(=O)[nH]c(N)nc54)O[C@@H]3COP(O)(=S)O[C@H]3[C@@H](O)[C@H](n4ccc(N)nc4=O)O[C@@H]3COP(O)(=S)O[C@H]3[C@@H](O)[C@H](n4ccc(N)nc4=O)O[C@@H]3COP(O)(=S)O[C@H]3[C@@H](O)[C@H](n4cnc5c(N)ncnc54)O[C@@H]3COP(O)(=S)O[C@H]3[C@@H](NCCCNCCCCNCCCN)[C@H](n4ccc(=O)[nH]c4=O)O[C@@H]3CO)O2)c(=O)[nH]c1=O (stereo partly specified)	19.4
50.1	67.6	Cc1cn([C@H]2C[C@H](OP(O)(=S)OC[C@H]3O[C@@H](n4ccc(N)nc4=O)[C@H](O)[C@@H]3OP(O)(=S)OC[C@H]3O[C@@H](n4cc(C)c(=O)[nH]c4=O)C[C@@H]3O)[C@@H](COP(O)(=S)O[C@H]3[C@@H](O)[C@H](n4ccc(N)nc4=O)O[C@@H]3COP(O)(=S)O[C@H]3[C@@H](O)[C@H](n4ccc(N)nc4=O)O[C@@H]3COP(O)(=S)O[C@H]3[C@@H](O)[C@H](n4ccc(N)nc4=O)O[C@@H]3COP(O)(=S)O[C@H]3[C@@H](O)[C@H](n4cnc5c(N)ncnc54)O[C@@H]3COP(O)(=S)O[C@H]3[C@@H](O)[C@H](n4cnc5c(=O)[nH]c(N)nc54)O[C@@H]3COP(O)(=S)O[C@H]3[C@@H](O)[C@H](n4ccc(N)nc4=O)O[C@@H]3COP(O)(=S)O[C@H]3[C@@H](O)[C@H](n4cnc5c(=O)[nH]c(N)nc54)O[C@@H]3COP(O)(=S)O[C@H]3C[C@H](n4cc(C)c(=O)[nH]c4=O)O[C@@H]3COP(O)(=S)O[C@H]3[C@@H](O)[C@H](n4cnc5c(=O)[nH]c(N)nc54)O[C@@H]3COP(O)(=S)O[C@H]3[C@@H](O)[C@H](n4ccc(N)nc4=O)O[C@@H]3COP(O)(=S)O[C@H]3[C@@H](O)[C@H](n4cnc5c(=O)[nH]c(N)nc54)O[C@@H]3COP(O)(=S)O[C@H]3[C@@H](O)[C@H](n4ccc(N)nc4=O)O[C@@H]3COP(O)(=S)O[C@H]3[C@@H](O)[C@H](n4ccc(N)nc4=O)O[C@@H]3COP(O)(=S)O[C@H]3[C@@H](O)[C@H](n4cnc5c(N)ncnc54)O[C@@H]3COP(O)(=S)O[C@H]3[C@@H](NCCCCN)[C@H](n4ccc(=O)[nH]c4=O)O[C@@H]3CO)O2)c(=O)[nH]c1=O (stereo partly specified)	70.6
45.8	70.6	Cc1cn([C@@H]2O[C@H](COP(=O)(O)O[C@H]3[C@@H](O)[C@H](n4ccc(N)nc4=O)O[C@@H]3COP(=O)(O)O[C@H]3[C@@H](O)[C@H](n4ccc(N)nc4=O)O[C@@H]3COP(=O)(O)O[C@H]3[C@@H](O)[C@H](n4ccc(N)nc4=O)O[C@@H]3COP(=O)(O)O[C@H]3[C@@H](O)[C@H](n4cnc5c(N)ncnc54)O[C@@H]3COP(=O)(O)O[C@H]3[C@@H](O)[C@H](n4cnc5c(=O)[nH]c(N)nc54)O[C@@H]3COP(=O)(O)O[C@H]3[C@@H](O)[C@H](n4ccc(N)nc4=O)O[C@@H]3COP(=O)(O)O[C@H]3[C@@H](O)[C@H](n4cnc5c(=O)[nH]c(N)nc54)O[C@@H]3COP(=O)(O)O[C@H]3[C@@H](NCCCNCCCCNCCCN)[C@H](n4ccc(=O)[nH]c4=O)O[C@@H]3COP(=O)(O)O[C@H]3[C@@H](O)[C@H](n4cnc5c(=O)[nH]c(N)nc54)O[C@@H]3COP(=O)(O)O[C@H]3[C@@H](O)[C@H](n4ccc(N)nc4=O)O[C@@H]3COP(=O)(O)O[C@H]3[C@@H](O)[C@H](n4cnc5c(=O)[nH]c(N)nc54)O[C@@H]3COP(=O)(O)O[C@H]3[C@@H](O)[C@H](n4ccc(N)nc4=O)O[C@@H]3COP(=O)(O)O[C@H]3[C@@H](O)[C@H](n4ccc(N)nc4=O)O[C@@H]3COP(=O)(O)O[C@H]3[C@@H](O)[C@H](n4cnc5c(N)ncnc54)O[C@@H]3COP(=O)(O)O[C@H]3C[C@H](n4cc(C)c(=O)[nH]c4=O)O[C@@H]3CO)[C@@H](OP(=O)(O)OC[C@H]3O[C@@H](n4ccc(N)nc4=O)[C@H](O)[C@@H]3OP(=O)(O)OC[C@H]3O[C@@H](n4ccc(=O)[nH]c4=O)[C@H](NCCCNCCCCNCCCN)[C@@H]3O)[C@H]2NCCCNCCCCNCCCN)c(=O)[nH]c1=O	–
